In article PMC4147775, “Stimulation of Hepatic Apolipoprotein A-I Production by Novel Thieno-Triazolodiazepines: Roles of the Classical Benzodiazepine Receptor, PAF Receptor, and Bromodomain Binding” (Lipid insights, 2013):
Where two headings read alike, the source gives them in different places.

Experiments:
[1] = Cytotoxicity: ATP level (Cell Titer Glo); format: cell-based, human; conditions: 72 hours; for ATP level in human hepatocytes: result in words
[2] = tested on: fibrosarcoma cells (HT1080); assay: Cytotoxicity: mitochondrial membrane potential (TMRM); conditions: for IC50: read-out: mitochondrial membrane potential in fibrosarcoma cells, IC50; for mitochondrial membrane potential in fibrosarcoma cells: 100 μM, result in words
[3] = Metabolic stability in human hepatocytes; format: in vitro ADME; conditions: cryopreserved human hepatocytes, read-out: stability in human hepatocytes (% remaining after 120 min)
[4] = tested on: apoA-I production by Hep-G2 cells; assay: apoA-I production by HepG2 cells (ELISA); format: cell-based, human; conditions: result in words (Figure 5)
Method: On the day of the experiment, supernatant medium was discarded and replaced by a solution of test compounds in HCM™ medium, which was prepared from DMSO stock solutions immediately before use. Stock solution concentrations assured that DMSO never exceeded 0.1% in the assay, as DMSO alone exerts significant effects on hepatocyte gene expression. Each concentration was run in triplicate whereas multiple wells were prepared for vehicle (DMSO) controls. The cells were cultured in the presence of the studied compounds and DMSO control for 72 hours at 37°C in 5% CO2 in air. The supernatants were replaced by a fresh dilution of test compounds after 24 hours and 48 hours, respectively. […]
After removal of the supernatants after 72 hours, all wells were washed 3 times with 200 μL isotonic 0.29 MD-mannitol and 25 μL d H2O was added to each well. The protein content of each well was determined using the Pierce® BCA Protein Assay Kit according to kit instructions and calculated as micrograms cellular protein per well.
For apoA-I detection, the human apoA1 ELISA kit from Mabtech Nacka, Sweden (Catalog no. 3710-1H-20) was used. […] Finally, the chromogenic substrate was added, and absorbance was measured at 450 nm.
The apoA-I content of each sample was calculated using the standard curve generated with each plate and was expressed as ng apoA-I per mg of cellular protein.

[5] = target: T1, human recombinant PAF receptor (Homo sapiens, UniProt P25105); assay: Binding to PAF receptor, 3H-C16-PAF, CHO cells; conditions: for competition with labeled PAF: cells expressing the human PAF receptor, result in words (Figure 3B)
T1 construct: expressed in transfected cells; host or cells: CHO cells

BRDT(2) = target: T2, BRDT(2) (Homo sapiens, UniProt Q58F21); assay: Protein stability shift assay (thermal shift), BRDT(2); format: binding; conditions: 10 μM ligand
T2 construct: the second as compared with the first bromodomain of these BRDs

BRD3(2) [6] = target: T3, BRD3(2) (Homo sapiens, UniProt Q15059); assay: Protein stability shift assay (thermal shift), BRD3(2); format: binding; parameters: the second as compared with the first bromodomain of these BRDs; conditions: 10 μM ligand
recombinant BRD4 domains = assay: Bromodomain inhibition assay (Alphascreen), acetylated histone H4 peptide displacement, BRD4; format: biochemical; conditions: domains 1 and 2, result in words (Figure 4)
PB1(5) = target: T4, PB1(5) (Homo sapiens, UniProt Q86U86); assay: Protein stability shift assay (thermal shift), PB1(5); format: binding; conditions: 10 μM ligand
T4 construct: Thermal shift (Δtm^obs) of human bromodomains in the presence of 10 μM compound

BRD2(2) = target: T5, BRD2(2) (Homo sapiens, UniProt P25440); assay: Protein stability shift assay (thermal shift), BRD2(2); format: binding; conditions: 10 μM ligand
T5 construct: the second as compared with the first bromodomain of these BRDs

recombinant BRD3 domains = assay: Bromodomain inhibition assay (Alphascreen), acetylated histone H4 peptide displacement, BRD3; format: biochemical; conditions: domains 1 and 2, result in words (Figure 4)
BRD3(2) [7] = target: T3, BRD3(2); assay: Isothermal titration calorimetry, BRD3(2); format: binding; parameters: 2 μM for the first bromodomain in BRD4 and 0.5 μM for the second bromodomain in BRD3; conditions: ITC
PCAF = target: T6, PCAF (Homo sapiens, UniProt Q92831); assay: Protein stability shift assay (thermal shift), PCAF; format: binding; conditions: 10 μM ligand
T6 construct: Thermal shift (Δtm^obs) of human bromodomains in the presence of 10 μM compound
T6 sequence (Q92831 723-827 limits assumed): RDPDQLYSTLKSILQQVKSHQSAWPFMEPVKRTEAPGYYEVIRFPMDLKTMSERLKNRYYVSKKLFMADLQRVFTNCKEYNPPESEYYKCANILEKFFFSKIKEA

[8] = tested on: apoA-I production by primary human hepatocytes; assay: apoA-I production by primary human hepatocytes (ELISA); format: cell-based; conditions: cultured human hepatocytes, 72 hours, maximal stimulation
BRD4(1) [9] = target: T7, BRD4(1) (Homo sapiens, UniProt O60885); assay: Isothermal titration calorimetry, BRD4(1); format: binding; parameters: 2 μM for the first bromodomain in BRD4 and 0.5 μM for the second bromodomain in BRD3; conditions: ITC
BRD2(1) = target: T8, BRD2(1) (Homo sapiens, UniProt P25440); assay: Protein stability shift assay (thermal shift), BRD2(1); format: binding; conditions: 10 μM ligand
T8 construct: the second as compared with the first bromodomain of these BRDs

CREBBP = target: T9, CREBBP (Homo sapiens, UniProt Q92793); assay: Protein stability shift assay (thermal shift), CREBBP; format: binding; conditions: 10 μM ligand
T9 construct: Thermal shift (Δtm^obs) of human bromodomains in the presence of 10 μM compound

BRDT(1) = target: T10, BRDT(1) (Homo sapiens, UniProt Q58F21); assay: Protein stability shift assay (thermal shift), BRDT(1); format: binding; conditions: 10 μM ligand
T10 construct: the second as compared with the first bromodomain of these BRDs

BAZ2B = target: T11, BAZ2B (Homo sapiens, UniProt Q9UIF8); assay: Protein stability shift assay (thermal shift), BAZ2B; format: binding; conditions: 10 μM ligand
T11 construct: Thermal shift (Δtm^obs) of human bromodomains in the presence of 10 μM compound
T11 sequence (Q9UIF8 2060-2164 limits assumed): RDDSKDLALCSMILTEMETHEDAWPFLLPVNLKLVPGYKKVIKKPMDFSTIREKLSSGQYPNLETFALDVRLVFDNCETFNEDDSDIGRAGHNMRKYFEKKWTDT

BRD4(2) = target: T12, BRD4(2) (Homo sapiens, UniProt O60885); assay: Protein stability shift assay (thermal shift), BRD4(2); format: binding; conditions: 10 μM ligand
T12 construct: the second as compared with the first bromodomain of these BRDs

BRD3(1) = target: T13, BRD3(1) (Homo sapiens, UniProt Q15059); assay: Protein stability shift assay (thermal shift), BRD3(1); format: binding; conditions: 10 μM ligand
T13 construct: the second as compared with the first bromodomain of these BRDs

central BZD receptor = assay: Binding to central BZD receptor, 3H-flunitrazepam, rat cerebral cortex membranes; conditions: for competition with labeled flunitrazepam: rat brain membranes, result in words (Figure 3A)
BRD4(1) [10] = target: T7, BRD4(1); assay: Protein stability shift assay (thermal shift), BRD4(1); format: binding; parameters: the second as compared with the first bromodomain of these BRDs; conditions: 10 μM ligand
[11] = tested on: fibrosarcoma cells (HT1080); conditions: read-out: mitochondrial membrane potential, IC50, cited from earlier work
apoA-I = tested on: apoA-I; parameters: method as in PMID 21449977; conditions: mice transgenic for human apoA-I; cited from earlier work

T5 sequence (P25440 344-453 limits assumed): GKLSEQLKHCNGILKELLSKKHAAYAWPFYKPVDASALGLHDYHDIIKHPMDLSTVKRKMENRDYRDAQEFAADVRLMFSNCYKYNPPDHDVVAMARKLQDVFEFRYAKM
T8 sequence (P25440 74-180 limits assumed): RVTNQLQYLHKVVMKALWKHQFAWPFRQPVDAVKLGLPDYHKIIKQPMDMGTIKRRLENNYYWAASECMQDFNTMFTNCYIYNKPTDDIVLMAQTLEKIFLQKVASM
T1 sequence (P25105 whole entry): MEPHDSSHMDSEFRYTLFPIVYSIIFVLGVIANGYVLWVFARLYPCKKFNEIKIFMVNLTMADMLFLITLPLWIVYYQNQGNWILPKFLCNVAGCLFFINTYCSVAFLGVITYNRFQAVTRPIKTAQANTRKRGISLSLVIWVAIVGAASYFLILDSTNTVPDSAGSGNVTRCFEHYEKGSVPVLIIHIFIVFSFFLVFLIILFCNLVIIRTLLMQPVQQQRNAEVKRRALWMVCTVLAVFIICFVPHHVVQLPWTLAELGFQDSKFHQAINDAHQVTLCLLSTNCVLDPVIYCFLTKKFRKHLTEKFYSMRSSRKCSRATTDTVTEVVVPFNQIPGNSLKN
T3 sequence (Q15059 306-415 limits assumed): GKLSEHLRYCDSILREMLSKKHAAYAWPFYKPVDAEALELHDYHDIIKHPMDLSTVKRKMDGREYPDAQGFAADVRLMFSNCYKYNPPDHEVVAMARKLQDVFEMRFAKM
T13 sequence (Q15059 34-140 limits assumed): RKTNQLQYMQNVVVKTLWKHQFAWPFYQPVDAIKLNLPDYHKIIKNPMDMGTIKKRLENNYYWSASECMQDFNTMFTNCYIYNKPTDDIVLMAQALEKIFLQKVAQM
T4 sequence (Q86U86 653-763 limits assumed): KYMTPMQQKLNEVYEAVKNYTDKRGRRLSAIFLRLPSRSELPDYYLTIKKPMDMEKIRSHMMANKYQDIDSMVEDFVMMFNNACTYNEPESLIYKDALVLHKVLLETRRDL
T9 sequence (Q92793 1085-1192 limits assumed): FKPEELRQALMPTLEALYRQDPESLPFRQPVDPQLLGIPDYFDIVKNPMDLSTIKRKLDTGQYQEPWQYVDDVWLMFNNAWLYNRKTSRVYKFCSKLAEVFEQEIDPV

Row | Compound | remaining at 2 h, 10 μM ([3]; donor 1, 10 μM) | Thermal shift (ΔTm obs) BRDT(2) (BRDT(2)) | Thermal shift (ΔTm obs) BRD3(2) (BRD3(2) [6]) | ATP level in human hepatocytes ([1]; 100 μM) | mitochondrial membrane potential in fibrosarcoma cells ([2]; 72 hours) | Thermal shift (ΔTm obs) PB1(5) (PB1(5)) | Thermal shift (ΔTm obs) BRD2(2) (BRD2(2)) | Thermal shift (ΔTm obs) PCAF (PCAF) | stimulation of apoA-I production [8] | Thermal shift (ΔTm obs) BRD2(1) (BRD2(1)) | Thermal shift (ΔTm obs) CREBBP (CREBBP) | Thermal shift (ΔTm obs) BRDT(1) (BRDT(1)) | Thermal shift (ΔTm obs) BAZ2B (BAZ2B) | Thermal shift (ΔTm obs) BRD4(2) (BRD4(2)) | Thermal shift (ΔTm obs) BRD3(1) (BRD3(1)) | competition with labeled flunitrazepam (central BZD receptor) | Thermal shift (ΔTm obs) BRD4(1) (BRD4(1) [10]) | competition with labeled PAF [5] | also measured
1 | N#CC(C#N)=NNc1ccc(OC(F)(F)F)cc1 [FCCP, reference compound] | – | – | – | – | – | – | – | – | – | – | – | – | – | – | – | – | – | – | ATP level in human hepatocytes, reduction ([1]; 100 μM): 96 ± 0.7% reduction at 100 μM (n = 2); IC50 ([2]; 72 hours): 17000 nM
2 | O=C(O)Cc1ccccc1Nc1c(Cl)cccc1Cl [Diclofenac, reference compound] | 70 ± 10% | – | – | – | – | – | – | – | – | – | – | – | – | – | – | – | – | – | –
3 | Cc1sc2c(c1C)C(c1ccc(Cl)cc1)=NC(CC(=O)OC(C)(C)C)c1nnc(C)n1-2 (single isomer, unassigned; (+)) [(+)-JQ1, reference compound] | – | – | – | – | – | – | – | – | – | – | – | – | – | – | – | – | – | – | effect on apoA-I production [4]: very effective stimulator of apoA-I production
4 | CCCCCCCCCCCCCCCCOC[C@H](COP(=O)([O-])OCC[N+](C)(C)C)OC(C)=O [C16-PAF, reference compound] | – | – | – | – | – | – | – | – | – | – | – | – | – | – | – | – | – | – | IC50 ([5]; 3H-C16-PAF, CHO cells expressing human recombinant PAF receptor, reference): 0.7 nM
5 | Cc1nnc2n1-c1sccc1C(c1ccccc1)=NC2(C)C [MDCO-3770] | – | 0.3 | 5.3 | no effect at 100 μM (n = 3) | no effect at 100 μM (n = 5) | −0.5 | 0.0 | 1.5 | up to 3 fold | −1.1 | −0.6 | −0.9 | −0.4 | 2.5 | −0.2 | did not compete | 3.3 | only weakly displaced | inhibition of binding of acetylated histone H4 peptide to BRD4 domains (recombinant BRD4 domains): clearly more potent than the other 2 thieno-TZDs; inhibition of binding of acetylated histone H4 peptide to BRD3 domains (recombinant BRD3 domains): clearly more potent than the other 2 thieno-TZDs; TΔS (BRD3(2) [7]; BRD3(2), 15°C): 0.04 kcal/mol; ΔH obs (BRD3(2) [7]; BRD3(2), 15°C): -4.62 ± 0.042 kcal/mol; N (BRD3(2) [7]; BRD3(2), 15°C, single binding site model): 1.02 ± 0.006; Kd (BRD3(2) [7]; KD, BRD3(2), 15°C, reverse titration): 513 ± 40.5 nM; Kd (BRD3(2) [7]; binding affinity, second bromodomain in BRD3, rounded in text): 500 nM; TΔS (BRD4(1) [9]; BRD4(1), 15°C): 0.01 kcal/mol; ΔG (BRD4(1) [9]; BRD4(1), 15°C): -6.71 kcal/mol; ΔH obs (BRD4(1) [9]; BRD4(1), 15°C): -6.71 ± 0.103 kcal/mol; N (BRD4(1) [9]; BRD4(1), 15°C, single binding site model): 0.99 ± 0.011; Kd (BRD4(1) [9]; KD, BRD4(1), 15°C, reverse titration): 2060 ± 141 nM; Kd (BRD4(1) [9]; binding affinity, first bromodomain in BRD4, rounded in text): 2000 nM; remaining at 2 h, 10 μM ([3]; donor 2, 10 μM): 97%
6 | C[C@]12CC[C@H]3[C@@H](CCC4=CC(=O)CC[C@@]43C)[C@@H]1CC[C@@H]2O [Testosterone, reference compound] | 64% | – | – | – | – | – | – | – | – | – | – | – | – | – | – | – | – | – | –
7 | Cc1nnc2n1-c1sccc1C(c1ccc3c(c1)OCO3)=NC2 [MDCO-3783] | 97% | 2.4 | 2.1 | no effect at 100 μM (n = 3) | no effect at 100 μM (n = 5) | 0.0 | 1.8 | 1.9 | up to 3 fold | 0.3 | −0.1 | 0.3 | 0.0 | 1.9 | 1.8 | did not compete | 2.4 | only weakly displaced | effect on apoA-I production [4]: potency and efficacy comparable to that of (−)-JQ1
8 | COCc1c(C(C)C)nc(C(C)C)c(/C=C/[C@@H](O)C[C@@H](O)CC(=O)O)c1-c1ccc(F)cc1 [Cerivastatin] | – | – | – | – | – | – | – | – | – | – | – | – | – | – | – | – | – | – | ATP level in human hepatocytes, reduction ([1]; 20 μM): 59 ± 10% reduction at 20 μM (n = 3); IC50 ([2]; Homo sapiens, HT-1080, 72 h): 2600 nM; IC50 ([11]; ref CEREP Cytotoxicity Application Note): 660 nM; IC50 ([11]; ref CEREP study report 14547): 1100 nM; IC50 ([11]; ref O’Brien et al. Arch toxicol. 2006;80:580–604): 3000 nM
9 | CN1C(=O)CN=C(c2ccccc2)c2cc(Cl)ccc21 [Diazepam, reference compound] | – | – | – | – | – | – | – | – | – | – | – | – | – | – | – | – | – | – | IC50 (central BZD receptor; 3H-flunitrazepam, rat cerebral cortex membranes, reference): 20 nM
10 | Cc1nnc2n1-c1sccc1C(c1ccccc1)=NC2 [MDCO-3760] | 105% | 3.2 | 3.0 | no effect at 100 μM (n = 3) | no effect at 100 μM (n = 5) | −4.7 | 2.6 | 2.2 | up to 3 fold | 0.1 | −0.1 | 0.4 | 0.1 | 2.8 | 1.9 | able to compete | 2.7 | able to compete | plasma levels of apoA-I (apoA-I): increased
